# Reference: ChEMBL document CHEMBL1158593, “Structure-activity relationships in human toll-like receptor 7-active imidazoquinoline analogues” (J Med Chem, 2010)
# pEC50: −log10 of the molar value.
# Target: T1, Toll-like receptor 7 (Homo sapiens, UniProt Q9NYK1)
# T1 sequence (Q9NYK1 whole entry): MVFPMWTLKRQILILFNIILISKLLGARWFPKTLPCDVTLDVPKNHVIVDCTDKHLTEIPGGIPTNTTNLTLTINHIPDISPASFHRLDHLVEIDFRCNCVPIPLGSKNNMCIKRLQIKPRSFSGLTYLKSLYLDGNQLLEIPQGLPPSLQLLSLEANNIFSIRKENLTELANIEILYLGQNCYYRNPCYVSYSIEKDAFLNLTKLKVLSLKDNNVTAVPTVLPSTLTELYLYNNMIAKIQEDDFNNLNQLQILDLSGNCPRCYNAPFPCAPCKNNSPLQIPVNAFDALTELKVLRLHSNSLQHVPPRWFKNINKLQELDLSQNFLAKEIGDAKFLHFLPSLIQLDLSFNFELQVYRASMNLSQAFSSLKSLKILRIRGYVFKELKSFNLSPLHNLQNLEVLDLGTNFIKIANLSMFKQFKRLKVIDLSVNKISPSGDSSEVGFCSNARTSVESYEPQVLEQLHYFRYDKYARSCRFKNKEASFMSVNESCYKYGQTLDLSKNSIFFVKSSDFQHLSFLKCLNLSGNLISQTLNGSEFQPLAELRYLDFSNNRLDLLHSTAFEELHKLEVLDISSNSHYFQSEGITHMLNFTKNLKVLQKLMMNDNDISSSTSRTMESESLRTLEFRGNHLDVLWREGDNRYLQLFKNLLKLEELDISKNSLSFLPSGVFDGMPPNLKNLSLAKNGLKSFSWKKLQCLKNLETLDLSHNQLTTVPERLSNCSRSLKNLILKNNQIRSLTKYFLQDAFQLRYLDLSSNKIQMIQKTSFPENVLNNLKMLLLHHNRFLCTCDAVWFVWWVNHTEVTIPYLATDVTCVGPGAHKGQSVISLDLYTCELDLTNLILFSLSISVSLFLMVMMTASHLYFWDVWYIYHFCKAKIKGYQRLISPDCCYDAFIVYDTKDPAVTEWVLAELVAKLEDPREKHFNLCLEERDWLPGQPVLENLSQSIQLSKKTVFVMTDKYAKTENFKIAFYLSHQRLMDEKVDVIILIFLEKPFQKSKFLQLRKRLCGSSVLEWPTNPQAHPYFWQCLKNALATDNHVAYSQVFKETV
# Description: Agonist activity at human TLR7 expressed in NF-kappaB-stimulated HEK293 cells assessed as induction of secreted alkaline phosphatase expression by reporter gene assay
row,SMILES,pEC50
1,CCCCc1nc2c(NO)nc3ccccc3c2n1Cc1ccccc1,6.14
2,CCNCc1nc2c(N)nc3ccccc3c2n1Cc1ccccc1,6.41
3,CC(C)Cn1cnc2c(N)nc3ccccc3c21 [IMIQUIMOD],5.67
4,CCCc1nc2c(N)nc3ccccc3c2n1Cc1ccccc1,6.19
5,CCCCCCCCCc1nc2c(N)nc3ccccc3c2n1Cc1ccccc1,5.47
6,CCCCCc1nc2c(N)nc3ccccc3c2n1Cc1ccccc1,7.04
7,CCCCc1nc2c(N)nc3ccccc3c2n1Cc1ccccc1,7.23

# Further lines, results first:
row,pEC50,SMILES
1,6.58,C=CCCc1nc2c(N)nc3ccccc3c2n1Cc1ccccc1
2,6.09,CCCCCCCc1nc2c(N)nc3ccccc3c2n1Cc1ccccc1
3,6.06,CCCCc1nc2c(NN)nc3ccccc3c2n1Cc1ccccc1
4,5.08,CCN(CCC#N)Cc1nc2c(N)nc3ccccc3c2n1CC(C)(C)O
5,5.11,CCN(CC)Cc1nc2c(N)nc3ccccc3c2n1CC(C)(C)O
6,6.32,CCCCCCc1nc2c(N)nc3ccccc3c2n1Cc1ccccc1
7,6.33,CCc1nc2c(N)nc3ccccc3c2n1Cc1ccccc1
8,6.68,C#CCCc1nc2c(N)nc3ccccc3c2n1Cc1ccccc1
9,6.02,Cc1nc2c(N)nc3ccccc3c2n1Cc1ccccc1
